Type in all cases: cell-based
Assay [1] deals with murine M2 macrophage. Description: Macrophage phenotype by flow cytometry (CD86, CD206) after drug-induced differentiation. The following applies: conditions of chart 2, p<0.05, FIG. 3. As to the method:
Use PBS containing 0.5% BSA to flush out bone marrow cells from murine (C57BL/6J, 8-20 weeks, Taiwan National Laboratory Animal Center) femur, then use Ficoll-Hypaque (GE healthcare, SWEDEN) to isolate monocytes.
Then, incubate 2×10^6 monocytes in 50 ng/ml M-CSF contained RPMI 1640 (10% FCS) medium under 37° c., 5% CO2 for seven days to induce M2 macrophage polarization. On the eighth day, collect 2×10^5 M2 macrophage and incubate them in RPMI 1640 (10% FCS) medium with Baicalin (50 μM, Tokyo Chemical Industry, JAPAN) for 24 hours. Baicalin will induce M2 macrophage to differentiate into M2C macrophage.
(§1) Embodiment 1 is prepared by the steps described above, isolate monocytes from murine bone marrow and use M-CSF to induce differentiation of M2 macrophage, and then use baicalin to induce M2C macrophage polarization. In comparison 1, incubate murine M2 macrophage in RPMI 1640 (10% FCS) containing LPS (lipopolysaccharide, 1 μg/ml, Sigma-Aldrich) for 2 hours. In comparison 2, incubate murine M2 macrophage in medium containing IL-4 ([…] Guidance System, Cambridge, UK) for 24 hours. The control group of M2 macrophage is incubated in RPMI 1640 (10% FCS) without any drugs. The conditions are shown below in chart 2.
(§2) After induced differentiation is complete, use flow cytometry to analyse the macrophage phenotype, in the meantime, also use real time PCR (qPCR) to observe mRNA expression level of each gene.
(§3) FIG. 2˜4 show results of macrophage phenotypes analysed by flow cytometry.

Assay [2] has as its system murine M2 macrophage. Description: Macrophage cell morphology under microscope. The conditions noted are these: versus M-CSF control and comparison 2, FIG. 4. The method, then: as §1, §3
In assay [3] the test system is murine M2 macrophage. The assay can be described thus: mRNA expression level of each gene by real time PCR (qPCR) after induced differentiation. The following applies: for IL-6 mRNA expression level: conditions of chart 2, FIG. 6. The method, then:
as §1, §2
TNF-Alpha: M1 macrophage expression gene IRF5: M1 macrophage polarization promoting gene IRF4: M2 macrophage polarization promoting gene ARG1 (Arginase-1): M2a macrophage molecular marker IL-10: cytokine that promotes M2 macrophage polarization and inhibits inflammation IL-6: cytokine that promotes inflammation and also serves as M2b macrophage molecular marker. MERTK: a gene that serves as M2C macrophage molecular marker and promotes phagocytosis PTX3: a gene that serves as M2C macrophage molecular marker and promotes phagocytosis VEGF-A: vascular endothelial growth factor PD-L1: a gene that regulates T cell and promotes tissue autoimmune tolerance
For orientation: Real-time PCR tracks product formation cycle by cycle.

Assay [4] deals with murine M2 macrophage. The assay can be described thus: Phagocytosis of FITC-Latex beads with PE-anti-MERTK staining (flow cytometry, fluorescence microscopy). The method, then:
In this example, experiment was performed to evaluate the effect of baicalin induced differentiated […] macrophages in promoting phagocytosis. Treatment conditions of drugs in each group is listed in chart 2, and control group is cultured in RPMI1640 (10% FCS) without any drugs. After treatment, collect 5×10^5 treated cells respectively and add 50 μl FITC-Latex beads (Phagocytosis assay kit (IgG FITC), Cayman Chemical, USA.) to perform phagocytosis experiment for 24 hours, and then use PE-anti-MERTK antibody to mark the cells and observe the fluorescence expression with flow cytometry.
(In general: In flow cytometry, cells or beads pass a laser one at a time.)

Where [5] appears, read: conditions of chart 2, P<0.05, FIG. 7 and FIG. 8.
Where [6] appears, read: conditions of chart 2, p<0.05, FIG. 5.

Experimental findings from patent US20190055517A1, “Cell Line of M2c Macrophage and Its Applications” (National Pingtung University of Science and Technology, priority 2017, published 2019) are described below.

Regarding `O=C(O)[C@H]1O[C@@H](Oc2cc3oc(-c4ccccc4)cc(=O)c3c(O)c2O)[C@H](O)[C@@H](O)[C@@H]1O` [Baicalin], the “percentage of cells expressing CD86 and CD206” value in assay [1] is “lower than both comparison 1 and 2”. In addition, in assay [2], the morphology of macrophages entry was “ellipse instead of spindle shaped”. The “IL-6 mRNA expression level” value in assay [3] is reported as “significantly lower than comparison 1”. The “IL-6 mRNA expression level” value in assay [3] (listed as embodiment 1) is recorded as “low”. Further, the “IL-10 mRNA expression level” value in assay [3] (conditions of chart 2, P<0.05, FIG. 6) is “significantly higher than comparison 1 and 2”. Also, in assay [3] (setting [5]), the “MERTK mRNA expression level” value is “significantly higher than control, comparison 1 and 2”; the “PD-L1 mRNA expression level” value is “significantly higher than control, comparison 1 and 2”; the “PTX3 mRNA expression level” value was “significantly higher than control, comparison 1 and 2”; the “VEGF-A mRNA expression level” value is “significantly higher than control, comparison 1 and 2”. Moreover, in assay [3] (setting [6]), the “IRF4 mRNA expression level” value is listed as “significantly lower than comparison 2”, the “IRF5 mRNA expression level” value was “significantly lower than comparison 1” and the “TNF-Alpha mRNA expression level” value is given as “significantly lower than comparison 1”. Moreover, in assay [3] (conditions of chart 2, p<0.05, FIG. 6), the “ARG1 mRNA expression level” value is recorded as “significantly lower than comparison 2”. The “percentage of cells that phagocytosed the beads” value in assay [4] (FITC-Latex beads 24 hours, FIG. 16) is on record as “approximately 30%”. In addition, the “percentage of cells that phagocytosed beads and also express MERTK protein” value in assay [4] (FITC-Latex beads 24 hours, PE-anti-MERTK, FIG. 17) is 30%. The “MERTK fluorescence distribution of cells after phagocytosing FITC-Latex beads” value in assay [4] (fluorescence microscope, PE-MERTK, FIG. 18) was “express MERTK on cell membrane”.
